Laboratory results taken from the supplement of paper PMC10307832.

Legend:
Assay in all cases: relative viability (nuclei count vs DMSO), 5 days (fraction); higher = more cells survive
Bosutinib + Phenformin = compound: COc1cc(Nc2c(C#N)cnc3cc(OCCCN4CCN(C)CC4)c(OC)cc23)c(Cl)cc1Cl [Bosutinib] + N=C(N)NC(=N)NCCc1ccccc1 [Phenformin] (partner 250 µM)
Summary of the method: (§1)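 Lung cancer cell lines in 1536-well plates were dosed by pin tool the day after seeding, either with one drug alone or with a fixed anchor-drug dose plus five library-drug doses (not always all listed) in √10 steps. After 5 days, cells were fixed and their nuclei stained in one step (final 0.05% Triton X-100, 1% formaldehyde, 1 ug/ml Hoechst), then counted on 4× images. Relative viability is the nuclei count in treated wells divided by that in vehicle wells. Values are medians of duplicate plates.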

Bosutinib + Crizotinib = compound: COc1cc(Nc2c(C#N)cnc3cc(OCCCN4CCN(C)CC4)c(OC)cc23)c(Cl)cc1Cl [Bosutinib] + C[C@@H](Oc1cc(-c2cnn(C3CCNCC3)c2)cnc1N)c1c(Cl)ccc(F)c1Cl [Crizotinib] (partner 1 µM)
Summary of the method: as §1

Bosutinib + Foretinib = compound: COc1cc(Nc2c(C#N)cnc3cc(OCCCN4CCN(C)CC4)c(OC)cc23)c(Cl)cc1Cl [Bosutinib] + COc1cc2c(Oc3ccc(NC(=O)C4(C(=O)Nc5ccc(F)cc5)CC4)cc3F)ccnc2cc1OCCCN1CCOCC1 [Foretinib] (partner 0.25 µM)
Summary of the method: as §1

Bosutinib + Linsitinib = compound: COc1cc(Nc2c(C#N)cnc3cc(OCCCN4CCN(C)CC4)c(OC)cc23)c(Cl)cc1Cl [Bosutinib] + C[C@]1(O)C[C@@H](c2nc(-c3ccc4ccc(-c5ccccc5)nc4c3)c3c(N)nccn32)C1 [Linsitinib] (partner 1 µM)
Summary of the method: as §1

Bosutinib = compound: COc1cc(Nc2c(C#N)cnc3cc(OCCCN4CCN(C)CC4)c(OC)cc23)c(Cl)cc1Cl [Bosutinib]
Summary of the method: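 In 1536-well plates, lung cancer cell lines rested overnight at 37 °C before five library-drug doses (not always all listed), √10 apart, were pinned onto vehicle-anchored plates. Nuclei were counted with MetaXpress from 4× Hoechst images taken after 5 days without medium change. Viability compares treated-well with vehicle-well nuclei as a median over plates, and plates needed control CV below 25% plus at least one doubling to pass.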

Cell Line | relative viability (Bosutinib + Phenformin; first compound 0.01 µM) | relative viability (Bosutinib + Phenformin; first compound 0.03162 µM) | relative viability (Bosutinib + Phenformin; first compound 0.1 µM) | relative viability (Bosutinib + Phenformin; first compound 1 µM) | relative viability (Bosutinib + Crizotinib; first compound 0.01 µM) | relative viability (Bosutinib + Crizotinib; first compound 0.03162 µM) | relative viability (Bosutinib + Crizotinib; first compound 0.1 µM) | relative viability (Bosutinib + Crizotinib; first compound 1 µM) | relative viability (Bosutinib + Foretinib; first compound 0.01 µM) | relative viability (Bosutinib + Foretinib; first compound 0.03162 µM) | relative viability (Bosutinib + Foretinib; first compound 0.1 µM) | relative viability (Bosutinib + Foretinib; first compound 1 µM) | relative viability (Bosutinib + Linsitinib; first compound 0.01 µM) | relative viability (Bosutinib + Linsitinib; first compound 0.03162 µM) | relative viability (Bosutinib + Linsitinib; first compound 0.1 µM) | relative viability (Bosutinib + Linsitinib; first compound 1 µM) | relative viability (Bosutinib; 0.01 µM) | relative viability (Bosutinib; 0.03162 µM) | relative viability (Bosutinib; 0.1 µM) | relative viability (Bosutinib; 1 µM)
NCI-H1651 | 0.32 | 0.322 | 0.331 | 0.357 | 0.783 | 0.89 | 0.888 | 0.773 | 0.75 | 0.737 | 0.909 | 0.8 | 0.911 | 1.02 | 0.939 | 0.724 | 0.997 | 0.966 | 1.03 | 0.988
201T | 0.444 | 0.421 | 0.449 | 0.425 | 0.982 | 1.06 | 1.1 | 0.945 | 1.08 | 1.06 | 0.991 | 0.548 | 1.08 | 0.987 | 1.02 | 0.966 | 1 | 0.991 | 1.02 | 0.906
NCI-H3122 | 0.399 | 0.375 | 0.35 | 0.3 | 0.287 | 0.282 | 0.328 | 0.322 | 1.04 | 0.979 | 0.926 | 0.993 | 0.981 | 0.995 | 1.09 | 0.989 | 1.02 | 1.02 | 1.01 | 0.993
A549 | 0.197 | 0.169 | 0.149 | 0.124 | 0.761 | 0.66 | 0.724 | 1.01 | 0.946 | 1 | 0.92 | 0.908 | 0.676 | 0.624 | 0.55 | 0.499 | 1 | 1.04 | 1.01 | 0.939
NCI-H727 | 0.695 | 0.371 | 0.42 | 0.407 | 0.725 | 0.885 | 0.701 | 0.378 | 0.91 | 0.859 | 0.639 | 0.568 | 0.231 | 0.386 | 0.305 | 0.182 | 0.911 | 0.929 | 0.985 | 0.632
NCI-H441 | 0.946 | 0.869 | 0.821 | 0.657 | 0.909 | 0.705 | 0.808 | 1.3 | 1.03 | 1.21 | 1.22 | 1.25 | 0.583 | 0.504 | 0.58 | 0.543 | 1.1 | 1.1 | 1.31 | 1.03
HOP-62 | 0.699 | 0.706 | 0.65 | 0.741 | 0.897 | 0.949 | 0.964 | 0.986 | 1.11 | 0.965 | 1.13 | 1.12 | 0.881 | 0.949 | 1.01 | 1.11 | 0.977 | 1.01 | 0.959 | 1.05
RERF-LC-KJ | 0.407 | 0.427 | 0.42 | 0.387 | 0.863 | 0.827 | 0.846 | 0.88 | 0.893 | 0.888 | 0.815 | 0.867 | 0.893 | 0.885 | 0.845 | 0.838 | 0.997 | 0.971 | 0.978 | 0.948
